# Measurements from PubChem BioAssay AID1963435 (Molecular Pharmacology Branch, DTP, NCI, 2024).
# System: PANC-1 complex spheroid growth, percent test/control
# Test: Anticancer human tumor PANC-1 cell line growth inhibition [Asc];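 note: spheroids exposed to agents for 7 days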;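 for viability, T/C: percent viability relative to DMSO vehicle wells taken as 100%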
# Conditions: for IC50: curve of first compound; for viability, T/C: stronger effect = lower value
# How it was run: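 Concentration series start at each agent's clinical Cmax, or at 10 microM when none is established, and drop in half-log steps; agents are applied alone or together to complex spheroids built with HUVEC and hMSC.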
structure (smiles),measurement,setting,value
NC(=O)C(=Cn1cnc(-c2cc(C(F)(F)F)cc(C(F)(F)F)c2)n1)c1cncnc1 + CNC(C)C(=O)NC1CN(S(=O)(=O)c2cccc(S(=O)(=O)N3CCC4CCC(C(=O)NC(c5ccccc5)c5ccccc5)N4C(=O)C(NC(=O)C(C)NC)C3)c2)CCC2CCC(C(=O)NC(c3ccccc3)c3ccccc3)N2C1=O,IC50,second compound 0.00316 µM,> 300 nM
same,IC50,second compound 0.01 µM,> 300 nM
same,IC50,second compound 0.0316 µM,> 300 nM
same,IC50,second compound 0.1 µM,> 300 nM
same,IC50,second compound 0.316 µM,> 300 nM
same,IC50,second compound 1 µM,> 300 nM
same,"viability, T/C","second compound 0.00316 µM, first compound 0.000949 µM",103%
same,"viability, T/C","second compound 0.00316 µM, first compound 0.003 µM",80.5%
same,"viability, T/C","second compound 0.00316 µM, first compound 0.00949 µM",90.2%
same,"viability, T/C","second compound 0.00316 µM, first compound 0.03 µM",91.6%
same,"viability, T/C","second compound 0.00316 µM, first compound 0.0949 µM",102%
same,"viability, T/C","second compound 0.00316 µM, first compound 0.3 µM",95.3%
same,"viability, T/C","second compound 0.01 µM, first compound 0.000949 µM",87%
same,"viability, T/C","second compound 0.01 µM, first compound 0.003 µM",89.9%
same,"viability, T/C","second compound 0.01 µM, first compound 0.00949 µM",89.3%
same,"viability, T/C","second compound 0.01 µM, first compound 0.03 µM",87.6%
same,"viability, T/C","second compound 0.01 µM, first compound 0.0949 µM",95.3%
same,"viability, T/C","second compound 0.01 µM, first compound 0.3 µM",85.2%
same,"viability, T/C","second compound 0.0316 µM, first compound 0.000949 µM",82%
same,"viability, T/C","second compound 0.0316 µM, first compound 0.003 µM",91.4%
same,"viability, T/C","second compound 0.0316 µM, first compound 0.00949 µM",83.3%
same,"viability, T/C","second compound 0.0316 µM, first compound 0.03 µM",81%
same,"viability, T/C","second compound 0.0316 µM, first compound 0.0949 µM",90.5%
same,"viability, T/C","second compound 0.0316 µM, first compound 0.3 µM",78.3%
same,"viability, T/C","second compound 0.1 µM, first compound 0.000949 µM",84%
same,"viability, T/C","second compound 0.1 µM, first compound 0.003 µM",83.1%
same,"viability, T/C","second compound 0.1 µM, first compound 0.00949 µM",79.9%
same,"viability, T/C","second compound 0.1 µM, first compound 0.03 µM",91.3%
same,"viability, T/C","second compound 0.1 µM, first compound 0.0949 µM",102%
same,"viability, T/C","second compound 0.1 µM, first compound 0.3 µM",80.5%
same,"viability, T/C","second compound 0.316 µM, first compound 0.000949 µM",89.2%
same,"viability, T/C","second compound 0.316 µM, first compound 0.003 µM",78%
same,"viability, T/C","second compound 0.316 µM, first compound 0.00949 µM",79.2%
same,"viability, T/C","second compound 0.316 µM, first compound 0.03 µM",81.5%
same,"viability, T/C","second compound 0.316 µM, first compound 0.0949 µM",103%
same,"viability, T/C","second compound 0.316 µM, first compound 0.3 µM",71.9%
same,"viability, T/C","second compound 1 µM, first compound 0.000949 µM",78.3%
same,"viability, T/C","second compound 1 µM, first compound 0.003 µM",90.7%
same,"viability, T/C","second compound 1 µM, first compound 0.00949 µM",79.7%
same,"viability, T/C","second compound 1 µM, first compound 0.03 µM",85.3%
same,"viability, T/C","second compound 1 µM, first compound 0.0949 µM",88.8%
same,"viability, T/C","second compound 1 µM, first compound 0.3 µM",66.7%
